Earlier results, collected in the PKSmart pharmacokinetics tables (Seal et al. 2025).

Columns and labels:
[1] = Lombardo et al. 2013, J Clin Pharmacol 53:178, doi 10.1177/0091270012440282; conditions: for Vd / clearance: in vivo, iv; for fraction unbound: plasma
[2] = not given per row; by the article one of three: Lombardo et al. 2013, J Clin Pharmacol 53:178, doi 10.1177/0091270012440282; 'New Drugs at FDA', novel drug approvals for 2021 and 2022 (the article's reference 43); Yap, Li, Chen 2006, J Mol Graph Model 24:383, doi 10.1016; conditions: human; in vivo

O=C(O)C1=C(C[n+]2ccc(CCS(=O)(=O)[O-])cc2)CS[C@@H]2C(NC(=O)C(NC(=O)c3nc[nH]c3C(=O)O)c3ccccc3)C(=O)N12 (some centres undefined)
Vd ([1]; dog): 0.2 L/kg | clearance ([1]; dog): 0.036 L/h/kg | fraction unbound ([1]; dog): 0.07 | Vd ([1]; monkey): 0.3 L/kg | clearance ([1]; monkey): 0.18 L/h/kg | Vd [2]: 0.21 L/kg | clearance [2]: 0.102 L/h/kg

CNC(C)C1CCC(N)C(OC2C(N)CC(N)C(OC3OCC(C)(O)C(NC)C3O)C2O)O1 (centres undefined)
Vd ([1]; dog): 0.33 L/kg | clearance ([1]; dog): 0.126 L/h/kg | Vd ([1]; rat): 0.33 L/kg | clearance ([1]; rat): 0.468 L/h/kg | clearance [2]: 0.06 L/h/kg

O=C1C=CC=CC1=C1NC(=C2C=CC=CC2=O)N(c2ccc(C(=O)O)cc2)N1
Vd ([1]; rat): 0.46 L/kg | clearance ([1]; rat): 0.372 L/h/kg | Vd [2]: 0.2 L/kg | clearance [2]: 0.0504 L/h/kg

[H]/N=C(/N=C(N)N)N(C)C
Vd ([1]; rat): 0.54 L/kg | clearance ([1]; rat): 1.01 L/h/kg | Vd [2]: 0.64 L/kg | clearance [2]: 0.444 L/h/kg

O=c1ncnc2[nH][nH]cc1-2
Vd ([1]; dog): 0.16 L/kg | Vd [2]: 0.58 L/kg

CCCn1c(=O)[nH]c(=O)c2[nH]cnc21
Vd ([1]; dog): 0.64 L/kg | clearance ([1]; dog): 0.144 L/h/kg | fraction unbound ([1]; dog): 0.61 | Vd ([1]; rat): 0.27 L/kg | clearance ([1]; rat): 0.72 L/h/kg | fraction unbound ([1]; rat): 0.19 | clearance [2]: 0.25 L/h/kg

C/N=C1/CN(O)C(c2ccccc2)=c2cc(Cl)ccc2=N1
Vd ([1]; rat): 1.3 L/kg | clearance ([1]; rat): 0.468 L/h/kg | fraction unbound ([1]; rat): 0.15 | Vd [2]: 0.25 L/kg

NNc1nncc2ccccc12
fraction unbound ([1]; dog): 0.29 | Vd ([1]; rat): 2.76 L/kg | clearance ([1]; rat): 8.34 L/h/kg | Vd [2]: 1.5 L/kg | clearance [2]: 4.23 L/h/kg

COc1ccccc1Oc1c(NS(=O)(=O)c2ccc(C(C)C)cn2)nc(-c2ccnc(-c3nn[nH]n3)c2)nc1OCCO
Vd ([1]; monkey): 0.21 L/kg | clearance ([1]; monkey): 0.936 L/h/kg | Vd ([1]; rat): 0.27 L/kg | clearance ([1]; rat): 0.258 L/h/kg | clearance [2]: 0.543 L/h/kg

C[C@@H](O[C@H]1OCCN(Cc2nc(=O)[nH][nH]2)[C@H]1c1ccc(F)cc1)c1cc(C(F)(F)F)cc(C(F)(F)F)c1
Vd ([1]; dog): 1 L/kg | fraction unbound ([1]; dog): 0.0009 | Vd ([1]; rat): 3.2 L/kg | fraction unbound ([1]; rat): 0.002 | Vd [2]: 0.94 L/kg

COCCOCC(CC1(C(=O)NC2CCC(C(=O)O)CC2)CCCC1)C(=O)O (centres undefined)
clearance ([1]; dog): 0.348 L/h/kg | clearance ([1]; rat): 0.9 L/h/kg | fraction unbound ([1]; rat): 0.23 | Vd [2]: 0.25 L/kg | clearance [2]: 0.138 L/h/kg

CON=C(C(=O)NC1C(=O)N2C(C(=O)[O-])=C(Cn3cc[n+]4ncccc34)CS[C@H]12)c1nsc(N)n1 (some centres undefined)
Vd ([1]; dog): 0.2 L/kg | clearance ([1]; dog): 0.18 L/h/kg | fraction unbound ([1]; dog): 0.9 | Vd ([1]; monkey): 0.2 L/kg | clearance ([1]; monkey): 0.114 L/h/kg | fraction unbound ([1]; monkey): 0.9 | Vd ([1]; rat): 0.2 L/kg | clearance ([1]; rat): 0.564 L/h/kg | fraction unbound ([1]; rat): 0.93 | Vd [2]: 0.24 L/kg | clearance [2]: 0.126 L/h/kg

CC(C)(C)S(=O)(=O)CC(Cc1ccccc1)C(=O)NC(Cc1cnc[nH]1)C(=O)N[C@@H](CC1CCCCC1)[C@@H](O)[C@@H](O)C1CC1 (some centres undefined)
Vd ([1]; dog): 1.52 L/kg | clearance ([1]; dog): 1.48 L/h/kg | fraction unbound ([1]; dog): 0.0802 | Vd ([1]; monkey): 1.7 L/kg | clearance ([1]; monkey): 1.2 L/h/kg | fraction unbound ([1]; monkey): 0.167 | Vd ([1]; rat): 4.4 L/kg | clearance ([1]; rat): 7.14 L/h/kg | fraction unbound ([1]; rat): 0.053 | Vd [2]: 0.77 L/kg | clearance [2]: 0.696 L/h/kg

CN(C)C1C(=O)C(C(N)=O)=C(O)[C@@]2(O)C(=O)C3=C(O)c4c(O)cccc4[C@@](C)(O)[C@H]3[C@H](O)[C@@H]12 (some centres undefined)
Vd ([1]; dog): 1.01 L/kg | clearance ([1]; dog): 0.0882 L/h/kg | Vd [2]: 1.7 L/kg | clearance [2]: 0.12 L/h/kg

CON=C(C(=O)NC1C(=O)N2C(C(=O)O)=C(CSc3nc(=O)c(=O)[nH]n3C)CS[C@H]12)c1csc(N)n1 (some centres undefined)
Vd ([1]; dog): 0.25 L/kg | clearance ([1]; dog): 0.237 L/h/kg | fraction unbound ([1]; dog): 0.717 | Vd ([1]; monkey): 0.11 L/kg | clearance ([1]; monkey): 0.0114 L/h/kg | fraction unbound ([1]; monkey): 0.0487 | Vd ([1]; rat): 1 L/kg | clearance ([1]; rat): 1.2 L/h/kg | fraction unbound ([1]; rat): 0.071 | Vd [2]: 0.09 L/kg | clearance [2]: 0.0147 L/h/kg

[2H]C([2H])([2H])C([2H])([2H])C(C)n1ncn(-c2ccc(N3CCN(c4ccc(OC[C@H]5CO[C@](Cn6cncn6)(c6ccc(Cl)cc6Cl)O5)cc4)CC3)cc2)c1=O (some centres undefined)
Vd ([1]; rat): 5.07 L/kg | clearance ([1]; rat): 0.55 L/h/kg | fraction unbound ([1]; rat): 0.9 | Vd [2]: 7.4 L/kg | clearance [2]: 0.306 L/h/kg

NC[C@H]1O[C@@H](O[C@H]2C(O)[C@@H](O[C@H]3O[C@@H](CO)[C@H](O)[C@@H](N)[C@@H]3O)[C@H](N)C[C@@H]2N)[C@H](N)C[C@@H]1O (some centres undefined)
clearance [2]: 0.081 L/h/kg

O=C(O)CN1C(=O)C(NC(CCc2ccccc2)C(=O)O)CCc2ccccc21 (centres undefined)
clearance [2]: 0.021 L/h/kg

Nc1nc(=O)c2c([nH]1)N[C@@H]1O[C@@H]3COP(=O)(O)O[C@@H]3C(O)(O)[C@@H]1N2
Vd [2]: 0.3 L/kg | clearance [2]: 0.181 L/h/kg | half-life [2]: 1.45 h

CN1CCC[C@@H](n2nc(Cc3ccc(Cl)cc3)c3ccccc3c2=O)CC1
clearance [2]: 0.5 L/h/kg

NC(=O)c1cnn([C@H]2O[C@@H](CO)[C@@H](O)[C@@H]2O)n1
clearance [2]: 0.3 L/h/kg

O=C(O)CCCCCCNC1c2ccccc2CCc2ccccc21
clearance [2]: 1.77 L/h/kg

CNCC[C@H](Oc1ccc(C(F)(F)F)cc1)c1ccccc1
clearance [2]: 0.576 L/h/kg
